Results taken from patent publication US9113629B2, “4-amino-6-(4-substituted-phenyl)-picolinates and 6-amino-2-(4-substituted-phenyl)-pyrimidine-4-carboxylates and their use as herbicides” (DOW AGROSCIENCES LLC, priority 2013, dated 2015).
Like-named read-outs stand apart in the source and are kept apart here.

Assays:
[1] = system: Key Broadleaf Weed and Crop Species; test: Post-emergent Test II herbicidal activity (Table 5); type: in vivo; conditions: post-emergence, 336 h, post-emergent, 14 days after application; for pest or weed control at 70 g/ha: 70 g ai/ha; for pest or weed control at 140 g/ha: 140 g ai/ha
How it was run: (§1)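 Scoring: visual, 0–100% injury at 14 d versus untreated. Treatment: overhead track spray, 187 L/ha, onto plants at the first–second true leaf stage. Growth: greenhouse, ~15 h light, 23–29 °C day, 22–28 °C night.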

[2] = system: Key Grass and Sedge Weeds as well as Grass Crops; test: Post-emergent Test II herbicidal activity (Table 6); type: in vivo; conditions: post-emergence, 336 h; for pest or weed control at 70 g/ha: application rate 70 g ai/ha; for pest or weed control at 140 g/ha: application rate 140 g ai/ha
How it was run: as §1

[3] = ABUTH: velvetleaf (Abutilon theophrasti), read-out: Visual Growth Reduction (%) 14 Days After Application ABUTH
[4] = AMARE: redroot pigweed (Amaranthus retroflexus), read-out: Visual Growth Reduction (%) 14 Days After Application AMARE
[5] = BRSNN: oilseed-rape, canola (Brassica napus), read-out: Visual Growth Reduction (%) 14 Days After Application BRSNN
[6] = CHEAL: lambsquarters (Chenopodium album), read-out: Visual Growth Reduction (%) 14 Days After Application CHEAL
[7] = EPHHL: wild poinsettia (Euphorbia heterophylla), read-out: Visual Growth Reduction (%) 14 Days After Application EPHHL
[8] = HELAN: sunflower (Helianthus annuus), read-out: Visual Growth Reduction (%) 14 Days After Application HELAN
[9] = VIOTR: wild pansy (Viola tricolor), read-out: Visual Growth Reduction (%) 14 Days After Application VIOTR
[10] = CYPES: yellow nutsedge (Cyperus esculentus), read-out: Visual Growth Reduction (%) 14 Days After Application, CYPES
[11] = DIGSA: crabgrass (Digitaria sanguinalis), read-out: Visual Growth Reduction (%) 14 Days After Application, DIGSA
[12] = ECHCG: barnyardgrass (Echinochloa crus-galli), read-out: Visual Growth Reduction (%) 14 Days After Application, ECHCG
[13] = ORYSA: rice (Oryza sativa), read-out: Visual Growth Reduction (%) 14 Days After Application, ORYSA
[14] = SETFA: giant foxtail (Setaria faberi), read-out: Visual Growth Reduction (%) 14 Days After Application, SETFA
[15] = SORVU: grain sorghum (Sorghum vulgare), read-out: Visual Growth Reduction (%) 14 Days After Application, SORVU
[16] = TRZSS (wheat, Triticum aestivum), read-out: Visual Growth Reduction (%) 14 Days After Application, TRZSS
[17] = ZEAMX: maize, corn (Zea mays), read-out: Visual Growth Reduction (%) 14 Days After Application, ZEAMX

## C=Cc1c(N)nc(-c2ccc(C#N)cc2F)nc1C(=O)O [Compound 5, 6-Amino-2-(4-cyano-2-fluorophenyl)-5-vinylpyrimidine-4-carboxylic acid]
other
  melting point: 164 to 168 °C
[1]; [3]
  pest or weed control at 70 g/ha: 0 to 29%
  pest or weed control at 140 g/ha: 0 to 29%
[1]; [4]
  pest or weed control at 70 g/ha: 0 to 29%
  pest or weed control at 140 g/ha: 0 to 29%
[1]; [5]
  pest or weed control at 70 g/ha: 0 to 29%
  pest or weed control at 140 g/ha: 0 to 29%
[1]; [6]
  pest or weed control at 70 g/ha: 0 to 29%
  pest or weed control at 140 g/ha: 0 to 29%
[1]; [7]
  pest or weed control at 70 g/ha: 0 to 29%
  pest or weed control at 140 g/ha: 0 to 29%
[1]; [8]
  pest or weed control at 70 g/ha: 85 to 94%
  pest or weed control at 140 g/ha: 85 to 94%
[1]; [9]
  pest or weed control at 70 g/ha: 0 to 29%
  pest or weed control at 140 g/ha: 0 to 29%
[2]; [10]
  pest or weed control at 70 g/ha: 0 to 29%
  pest or weed control at 140 g/ha: 0 to 29%
[2]; [11]
  pest or weed control at 70 g/ha: 0 to 29%
  pest or weed control at 140 g/ha: 0 to 29%
[2]; [12]
  pest or weed control at 70 g/ha: 0 to 29%
  pest or weed control at 140 g/ha: 0 to 29%
[2]; [13]
  pest or weed control at 70 g/ha: 0 to 29%
  pest or weed control at 140 g/ha: 0 to 29%
[2]; [14]
  pest or weed control at 70 g/ha: 0 to 29%
  pest or weed control at 140 g/ha: 0 to 29%
[2]; [15]
  pest or weed control at 70 g/ha: 0 to 29%
  pest or weed control at 140 g/ha: 0 to 29%
[2]; [16]
  pest or weed control at 70 g/ha: 0 to 29%
  pest or weed control at 140 g/ha: 0 to 29%
[2]; [17]
  pest or weed control at 70 g/ha: 0 to 29%
  pest or weed control at 140 g/ha: 0 to 29%

## COC(=O)c1nc(-c2cc(F)c(C#N)cc2F)c(F)c(N)c1Cl [Compound 198]
[1]; [3]
  pest or weed control at 70 g/ha: 60 to 74%
  pest or weed control at 140 g/ha: 75 to 84%
[1]; [4]
  pest or weed control at 70 g/ha: 60 to 74%
  pest or weed control at 140 g/ha: 95 to 100%
[1]; [5]
  pest or weed control at 70 g/ha: 75 to 84%
  pest or weed control at 140 g/ha: 75 to 84%
[1]; [6]
  pest or weed control at 70 g/ha: 85 to 94%
  pest or weed control at 140 g/ha: 95 to 100%
[1]; [7]
  pest or weed control at 70 g/ha: 45 to 59%
  pest or weed control at 140 g/ha: 60 to 74%
[1]; [8]
  pest or weed control at 70 g/ha: 95 to 100%
  pest or weed control at 140 g/ha: 95 to 100%
[1]; [9]
  pest or weed control at 70 g/ha: 30 to 44%
  pest or weed control at 140 g/ha: 60 to 74%
[2]; [10]
  pest or weed control at 70 g/ha: 60 to 74%
  pest or weed control at 140 g/ha: 60 to 74%
[2]; [11]
  pest or weed control at 70 g/ha: 0 to 29%
  pest or weed control at 140 g/ha: 0 to 29%
[2]; [12]
  pest or weed control at 70 g/ha: 0 to 29%
  pest or weed control at 140 g/ha: 0 to 29%
[2]; [13]
  pest or weed control at 70 g/ha: 0 to 29%
  pest or weed control at 140 g/ha: 0 to 29%
[2]; [14]
  pest or weed control at 70 g/ha: 0 to 29%
  pest or weed control at 140 g/ha: 0 to 29%
[2]; [15]
  pest or weed control at 70 g/ha: 0 to 29%
  pest or weed control at 140 g/ha: 0 to 29%
[2]; [16]
  pest or weed control at 70 g/ha: 30 to 44%
  pest or weed control at 140 g/ha: 45 to 59%
[2]; [17]
  pest or weed control at 70 g/ha: 0 to 29%
  pest or weed control at 140 g/ha: 0 to 29%
